Measurements: article PMC11773056, “The zymogenic form of SARS-CoV-2 main protease: A discrete target for drug discovery” (The Journal of Biological Chemistry, 2024)

Target: T1, M^pro expressed from mCherry-repM^pro-eGFP (total protease, all forms) (Severe acute respiratory syndrome coronavirus 2, UniProt P0DTD1)
T1 construct: gene rep
Test: cell-based
Conditions: read-out: HEK293T cells, reporter mCherry-repM^pro-eGFP / Total inhibition EC50

## O=C(Oc1cncc(C(F)(F)F)c1)c1cccc2[nH]ccc12 [compound 1, Compound 1]
  EC50: 12.1 ± 2.8 µM
